Measurements taken from patent publication EP4748844A1, “AZETIDINE COMPOUND AND MEDICAL USE THEREOF” (SHANGHAI INSTITUTE OF MATERIA MEDICA, CHINESE ACADEMY OF …, priority 2023, dated 2025).

Key:
[1] = system: ISG gene expression induced by MSA-2 in human THP1-Blue-ISG cells; experiment: Inhibition of MSA-2-induced ISG gene expression in human THP1-Blue-ISG cells (Quanti-Blue, OD650); assay type: cell-based; details: STING agonist MSA-2 10 µM, incubated for 24 hours
Method: (§1) 10 µL of compound diluted with PBS/physiological saline was added to each well of a 96 well cell culture plate. The STING agonist was MSA-2, which was added to the counted cell suspension at a final concentration of 10 µM. For the control group without compounds, 10 µL of PBS/physiological saline containing 2% DMSO was added. 3 replicate wells were set in each group. THP1-Blue-ISG cells were counted and adjusted to a cell concentration of 4× 10^5/mL, and 190 µL of cells containing STING agonist were added to each well for incubation. Therefore, the final volume of each test well was 200 µL, the content of DMSO was 0.1%, and the final concentration of the compound tested was 10/3.3/1.1/0.4/0.13/0.04/0.013/0.004 µM, incubated for 24 hours. In addition, 190 µL of cells without STING agonist and 10 µL of physiological saline containing 2% DMSO were added to the blank group. 3 replicate wells were set in each group.
After 24 hours, 20 µL of culture medium was taken from each well and transferred to a new 96 well plate. 180 µL of chromogenic solution Quanti-Blue was added. The plate was placed in a 37 °C incubator. After 2 hours, the OD650 values were measured.
Result analysis: Inhibition rate (%) = (Con(OD650)−Treated(OD650))/Con(OD650) × 100% [formula]
(§2) The IC50 calculation of inhibitors was implemented using the Graphpad Prism 8 software's calculation method log (inhibitor) vs. response - Variable slope (four parameters), with a constrain interval of 0-100.

[2] = system: Trex1-D18N autoimmune mouse model; experiment: Inflammatory inhibitory effect of oral administration in Trex1-D18N autoimmune mouse model; assay type: in vivo; details: I-77 20mpk, daily for one month, qPCR of Cxcl10/IP10, ISG15, ISG56, IFN-β, IFN-γ, STAT2 in heart, Figure 10
Method: The model mice were purchased from GEMPHARMATECH CO., LTD., and the wild-type C57/BL6 mice were also purchased from GEMPHARMATECH CO., LTD.. Compound preparation method: 2 mg of I-77 powder was taken, 12 µL of PEG400 was added thereto and ultrasonically dissolved, and then 8 µL of Tween 80 was added and ultrasonically mixed to prepare a 100 mg/mL stock solution.
Experimental grouping: Wild type mice control group (Control) was administered vehicle solvent; The model mice group (Model) was administered vehicle solvent; The treatment group (I-77) was administered I-77 (20mpk, PO) to the model mice. The mice in the I-77 group were intragastrically administered 200 µL of I-77 solution at a final concentration of […] daily, which was prepared by dilution with double-distilled water; The same dose of vehicle solvent was administered to the remaining groups continuously for one month. The heart was collected from the experimental endpoint samples. RNA extraction was performed on heart samples, and the RNA was reversed to cDNA. Changes in gene expression of inflammation related cytokines (Cxcl10/IP10, ISG15, ISG56, IFN-β, IFN-γ, and STAT2) in the tissues were detected using qPCR technology. Statistical method: One way ANOVA, *P<0.05, **P<0.01, ***P<0.001, ***P<0.0001.

[3] = system: STING agonist (MSA-2) stimulation; experiment: In vivo anti-inflammatory effect of injection administration on STING agonist (MSA-2) stimulation; design: species or system C57BL6 female mice; details: I-77 10mpk, IP
Method: 6-8 week C57BL6 female mice, purchased from Shanghai Jihui Experimental Animal Breeding Co., Ltd. Compound preparation method: 2 mg of I-77 powder was taken, 12 µL of PEG400 was added thereto and ultrasonically dissolved, and then 8 µL of Tween 80 was added and ultrasonically mixed to prepare a 100 mg/mL stock solution.
Experimental grouping: The control group was administered vehicle solvent; The model group was administered MSA-2 (10mpk, dissolved in 40% PEG400); The treatment group (I-77) was administered MSA-2 and I-77 (10mpk, IP). A final concentration of […] of I-77 solution was prepared by dilution with double distilled water, and 200 µL of the solution was taken and injected intraperitoneally into the mice in treatment group; The control group and MSA-2 group were injected intraperitoneally with 200 µL of vehicle solvent diluted 10 times. […] After high-speed centrifugation of blood samples, the plasma was taken and diluted by 2 times, and the levels of CXCL10 and IL6 in the plasma were detected using the Lianke ELISA kit. RNA was extracted from heart and kidney samples, and reversed to cDNA, and inflammation related cytokines (ISG15, ISG56, IL6, and IP10) in tissues were detected using qPCR technology. […]

[4] = system: ISG gene expression induced by MSA-2 in human THP1-Dual cells; experiment: Inhibition of MSA-2-induced ISG gene expression in human THP1-Dual cells (QUANTI-Luc); assay type: cell-based; details: STING agonist MSA-2 10 µM, incubated for 24 hours
Method: as §1, with “THP1-Dual” for “THP1-Blue-ISG”, “4×10^5/mL,” for “4× 10^5/mL,”
After 24 hours, 20 µL of culture medium for THP1-Dual cells was taken from each well and transferred to a new 96 well plate with photopermeable bottom. 50 µL of the luciferase detection reagent QUANTI-Luc™ was added, and the […] was immediately measured (avoid light). Result analysis:Inhibition rate (%) = (Con(Lum)−Treated(Lum))/Con(Lum) × 100% [formula]
as §2

CC1(C)C(=O)N(Cc2ccsc2)c2cc(C(=O)Nc3c[nH]c4ccccc34)ccc21 [Example I-77, N-(1H-indol-3-yl)-3,3-dimethyl-2-oxo-1-(thien-3-ylmethyl)indolin-6-carboxamide]
IC50 [1]: 162 nM
cardiac inflammation related cytokine expression in the Trex1-D18N model [2]: significantly inhibit the upregulation
IL6 and IP10 levels in plasma stimulated by MSA-2 ([3]; 3 hours before MSA-2 (10mpk), plasma ELISA 3 hours after MSA-2, Figure 1): significantly inhibit the increase
inflammatory response of the heart and kidneys induced by MSA-2 stimulation ([3]; qPCR of ISG15, ISG56, IL6, IP10 in tissues, Figures 2, 3): suppress the inflammatory response
IC50 [4]: 0.63 nM
